Results published in article PMC8841437 (Clinical and Translational Science, 2021).

Key:
[1] = test system: arterial and venous thrombosis; conditions: preclinical models of arterial and venous thrombosis; cited from earlier work
Single ascending dose = assay type: in vivo, human; conditions: for increase in bioavailability by food intake: fed vs fasted; for AUC: AUC(0‐T); for AUC / Cmax: n = 6, geometric mean (geometric CV%); for Cmax: fed (high-fat breakfast)
[2] = Urinary excretion of milvexian; assay type: in vivo, human
[3] = test system: activated partial thromboplastin time (aPTT); test: Activated partial thromboplastin time; assay type: in vivo, human
healthy participants = test: Safety and tolerability; assay type: in vivo, human
prothrombin time = test: Prothrombin time, ex vivo pharmacodynamics; assay type: in vivo, human; conditions: SAD and MAD panels; data not shown
Multiple ascending dose = conditions: for Tmax: median (min-max)
[4] = MAD panel 7, 5 mg q.d. fasted, n = 6
[5] = MAD panel 8, 20 mg q.d. fasted, n = 6
[6] = MAD panel 9, 70 mg q.d. fasted, n = 6
[7] = MAD panel 10, 200 mg q.d. fasted, n = 6
[8] = MAD panel 11, 500 mg q.d. fed, n = 6
[9] = MAD panel 12, 35 mg b.i.d. fasted, n = 6
[10] = MAD panel 13, 200 mg b.i.d. fasted, n = 6
[11] = MAD, all participants treated with milvexian, N = 42
[12] = all SAD and MAD dosing regimens

## C[C@@H]1CCC[C@H](n2cnc(-c3cc(Cl)ccc3-n3cc(Cl)nn3)cc2=O)c2cc(ccn2)-c2c(cnn2C(F)F)NC1=O [milvexian]
[1]
  antithrombotic activity: antithrombotic activity while preserving homeostasis
Single ascending dose; SAD 200-mg panel
  increase in bioavailability by food intake: ~ 1.4 fold
Single ascending dose; SAD 500-mg panel
  increase in bioavailability by food intake: ~ 2 fold
Single ascending dose; SAD panels 4 and 6, fed vs fasted
  mean T1/2 shortened when administered with food: 1.5 h
Single ascending dose; SAD, fasted, 20 to 200 mg
  dose proportionality of Cmax and exposure: generally dose‐proportional
Single ascending dose; human, plasma, oral, 4 mg, SAD panel 1, 4 mg, fasted
  AUC: 125 ng·h/mL
Single ascending dose; human, plasma, oral, 20 mg, SAD panel 2, 20 mg, fasted
  AUC: 1220 ng·h/mL
Single ascending dose; human, plasma, oral, 60 mg, SAD panel 3, 60 mg, fasted
  AUC: 3790 ng·h/mL
Single ascending dose; human, plasma, oral, 200 mg, SAD panel 4, 200 mg, fasted
  AUC: 12500 ng·h/mL
Single ascending dose; human, plasma, oral, 200 mg, SAD panel 4, 200 mg, fed
  AUC: 17800 ng·h/mL
Single ascending dose; human, plasma, oral, 200 mg, SAD panel 4, 200 mg
  Cmax: 1640 ng/mL
Single ascending dose; human, plasma, oral, 300 mg, SAD panel 5, 300 mg, fasted
  AUC: 14600 ng·h/mL
Single ascending dose; human, plasma, oral, 500 mg, SAD panel 6, 500 mg, fasted
  AUC: 21000 ng·h/mL
Single ascending dose; human, plasma, oral, 500 mg, SAD panel 6, 500 mg, fed
  AUC: 44300 ng·h/mL
Single ascending dose; human, plasma, oral, 500 mg, SAD panel 6, 500 mg
  Cmax: 3360 ng/mL
Single ascending dose; human, plasma, oral, T1/2, range across all SAD panels, SAD, 4-500 mg
  half-life: 8.3 to 13.8 h
Single ascending dose; human, plasma, oral, Tmax, summary in discussion, rapid absorption
  Tmax: 2 to 4 h
[2]; MAD panel 9, 70 mg q.d., day 1
  mean total amount excreted in urine from 0 to 24 h postdose: 14.8 % of the administered dose
[2]; MAD panel 9, 70 mg q.d., day 14
  mean total amount excreted in urine from 0 to 24 h postdose: 17.3 % of the administered dose
[2]; MAD panel 10, 200 mg q.d., day 1
  mean total amount excreted in urine from 0 to 24 h postdose: 10.4 % of the administered dose
[2]; MAD panel 10, 200 mg q.d., day 14
  mean total amount excreted in urine from 0 to 24 h postdose: 14.1 % of the administered dose
[2]; all panels
  Renal excretion: less than 20%
[3]; fasted SAD panel 4 mg
  maximal mean percent increase from baseline in aPTT: 11.9%
[3]; fasted SAD panel 20 mg
  maximal mean percent increase from baseline in aPTT: 36.7%
[3]; fasted SAD panel 60 mg
  maximal mean percent increase from baseline in aPTT: 85.2%
[3]; fasted SAD panel 200 mg
  maximal mean percent increase from baseline in aPTT: 147.1%
[3]; fasted SAD panel 300 mg
  maximal mean percent increase from baseline in aPTT: 140.8%
[3]; fasted SAD panel 500 mg
  maximal mean percent increase from baseline in aPTT: 188.3%
Healthy participants; MAD 5-mg q.d. group
  epistaxis: one participant
Healthy participants; MAD 5-mg q.d. group, considered treatment-related, mild
  gingival bleeding: one participant
Healthy participants; MAD 70-mg q.d. group, considered treatment-related, mild
  petechia: one participant
Healthy participants; [4]
  Abdominal discomfort (TEAE): 1 (16.7) n (%)
  Abdominal pain (TEAE): 0 n (%)
  Any TEAE: 4 (66.7) n (%)
  Diarrhea (TEAE): 1 (16.7) n (%)
  Dizziness (TEAE): 0 n (%)
  Headache (TEAE): 2 (33.3) n (%)
  Nausea (TEAE): 0 n (%)
  Oropharyngeal pain (TEAE): 0 n (%)
  Pain in extremity (TEAE): 0 n (%)
Healthy participants; MAD panel 7, after one dose of 5 mg
  discontinuation of treatment because of an AE (macular rash): one participant
Healthy participants; [5]
  Abdominal discomfort (TEAE): 0 n (%)
  Abdominal pain (TEAE): 0 n (%)
  Any TEAE: 1 (16.7) n (%)
  Diarrhea (TEAE): 0 n (%)
  Dizziness (TEAE): 0 n (%)
  Headache (TEAE): 1 (16.7) n (%)
  Nausea (TEAE): 0 n (%)
  Oropharyngeal pain (TEAE): 0 n (%)
  Pain in extremity (TEAE): 0 n (%)
Healthy participants; [6]
  Abdominal discomfort (TEAE): 1 (16.7) n (%)
  Abdominal pain (TEAE): 1 (16.7) n (%)
  Any TEAE: 5 (83.3) n (%)
  Diarrhea (TEAE): 3 (50.0) n (%)
  Dizziness (TEAE): 1 (16.7) n (%)
  Headache (TEAE): 2 (33.3) n (%)
  Nausea (TEAE): 1 (16.7) n (%)
  Oropharyngeal pain (TEAE): 0 n (%)
  Pain in extremity (TEAE): 1 (16.7) n (%)
Healthy participants; [7]
  Abdominal discomfort (TEAE): 0 n (%)
  Abdominal pain (TEAE): 1 (16.7) n (%)
  Any TEAE: 4 (66.7) n (%)
  Diarrhea (TEAE): 1 (16.7) n (%)
  Dizziness (TEAE): 0 n (%)
  Headache (TEAE): 1 (16.7) n (%)
  Nausea (TEAE): 2 (33.3) n (%)
  Oropharyngeal pain (TEAE): 1 (16.7) n (%)
  Pain in extremity (TEAE): 1 (16.7) n (%)
Healthy participants; [8]
  Abdominal discomfort (TEAE): 0 n (%)
  Abdominal pain (TEAE): 0 n (%)
  Any TEAE: 3 (50.0) n (%)
  Diarrhea (TEAE): 0 n (%)
  Dizziness (TEAE): 0 n (%)
  Headache (TEAE): 0 n (%)
  Nausea (TEAE): 0 n (%)
  Oropharyngeal pain (TEAE): 0 n (%)
  Pain in extremity (TEAE): 0 n (%)
Healthy participants; [9]
  Abdominal discomfort (TEAE): 0 n (%)
  Abdominal pain (TEAE): 0 n (%)
  Any TEAE: 2 (33.3) n (%)
  Diarrhea (TEAE): 0 n (%)
  Dizziness (TEAE): 1 (16.7) n (%)
  Headache (TEAE): 0 n (%)
  Nausea (TEAE): 0 n (%)
  Oropharyngeal pain (TEAE): 0 n (%)
  Pain in extremity (TEAE): 0 n (%)
Healthy participants; [10]
  Abdominal discomfort (TEAE): 0 n (%)
  Abdominal pain (TEAE): 0 n (%)
  Any TEAE: 2 (33.3) n (%)
  Diarrhea (TEAE): 0 n (%)
  Dizziness (TEAE): 1 (16.7) n (%)
  Headache (TEAE): 0 n (%)
  Nausea (TEAE): 0 n (%)
  Oropharyngeal pain (TEAE): 1 (16.7) n (%)
  Pain in extremity (TEAE): 0 n (%)
Healthy participants; MAD panels, milvexian
  Diarrhea (TEAE): 11.9%
  Headache (TEAE): 14.3%
Healthy participants; MAD panels, participants who received milvexian (21 participants)
  participants reporting TEAEs: 50.0%
Healthy participants; [11]
  Abdominal discomfort (TEAE): 2 (4.8) n (%)
  Abdominal pain (TEAE): 2 (4.8) n (%)
  Any TEAE: 21 (50.0) n (%)
  Diarrhea (TEAE): 5 (11.9) n (%)
  Dizziness (TEAE): 3 (7.1) n (%)
  Headache (TEAE): 6 (14.3) n (%)
  Nausea (TEAE): 3 (7.1) n (%)
  Oropharyngeal pain (TEAE): 2 (4.8) n (%)
  Pain in extremity (TEAE): 2 (4.8) n (%)
Healthy participants; SAD and MAD
  ECG abnormalities: no clinically significant ECG abnormalities
  incidence of laboratory and vital sign abnormalities vs placebo: no relevant differences
Healthy participants; SAD panels, fasted participants who received milvexian (three participants)
  participants reporting TEAEs: 8.3%
Healthy participants; SAD up to 500 mg, MAD up to 200 mg b.i.d. or 500 mg q.d.
  deaths or other SAEs: No deaths or other SAEs occurred
Healthy participants; SAD, 300 mg, fasted
  Headache (TEAE): 2 n
Healthy participants; SAD, 500-mg group, fed (one participant)
  nausea (TEAE) after a high-fat breakfast: 16.7%
Healthy participants; [12]
  clinically significant bleeding events: no clinically significant bleeding events
  severity of TEAEs: mild
Healthy participants; same participant, 35-mg b.i.d. group, within normal limits
  platelet count at next sampling time 2 days later: 1.84e+11 L⁻¹
Prothrombin time
  Prothrombin time: not increased at any time
Multiple ascending dose; MAD 5-mg q.d. panel, visual inspection of trough concentrations
  time to steady-state plasma concentration: 1 dosing day
Multiple ascending dose; MAD day 14, 5-500 mg
  dose proportionality of increases in exposure: greater than dose‐proportional
Multiple ascending dose; MAD, once-daily dosing
  time to steady-state plasma concentration: ≤ 3 dosing days
Multiple ascending dose; human, in vivo, 5 mg, AUC(0‐T), MAD panel 7, 5 mg q.d. fasted, day 14, n = 5, geometric mean (geometric CV%)
  AUC: 146 ng·h/mL
Multiple ascending dose; human, in vivo, 5 mg, AUC(TAU), MAD panel 7, 5 mg q.d. fasted, day 14, n = 5, geometric mean (geometric CV%)
  AUC: 146 ng·h/mL
Multiple ascending dose; human, in vivo, 5 mg, Cmax, MAD panel 7, 5 mg q.d. fasted, day 14, n = 5, geometric mean (geometric CV%)
  Cmax at 14 days: 14.8 ng/mL
Multiple ascending dose; human, in vivo, 5 mg, MAD panel 7, 5 mg q.d. fasted, day 14, n = 5
  Tmax: 2.03 h
Multiple ascending dose; human, in vivo, 20 mg, AUC(0‐T), MAD panel 8, 20 mg q.d. fasted, day 14, n = 6, geometric mean (geometric CV%)
  AUC: 1660 ng·h/mL
Multiple ascending dose; human, in vivo, 20 mg, AUC(TAU), MAD panel 8, 20 mg q.d. fasted, day 14, n = 6, geometric mean (geometric CV%)
  AUC: 1370 ng·h/mL
Multiple ascending dose; human, in vivo, 20 mg, Cmax, MAD panel 8, 20 mg q.d. fasted, day 14, n = 6, geometric mean (geometric CV%)
  Cmax at 14 days: 171 ng/mL
Multiple ascending dose; human, in vivo, 20 mg, MAD panel 8, 20 mg q.d. fasted, day 14, n = 6
  Tmax: 2.5 h
Multiple ascending dose; human, in vivo, 70 mg, AUC(TAU), MAD panel 9, 70 mg q.d. fasted, day 14, n = 5, geometric mean (geometric CV%)
  AUC: 4220 ng·h/mL
Multiple ascending dose; human, in vivo, 70 mg, Cmax, MAD panel 9, 70 mg q.d. fasted, day 14, n = 5, geometric mean (geometric CV%)
  Cmax at 14 days: 434 ng/mL
Multiple ascending dose; human, in vivo, 70 mg, MAD panel 9, 70 mg q.d. fasted, day 14, n = 5
  Tmax: 3 h
Multiple ascending dose; human, in vivo, 200 mg, AUC(0‐T), MAD panel 10, 200 mg q.d. fasted, day 14, n = 6, geometric mean (geometric CV%)
  AUC: 18900 ng·h/mL
Multiple ascending dose; human, in vivo, 200 mg, AUC(TAU), MAD panel 10, 200 mg q.d. fasted, day 14, n = 6, geometric mean (geometric CV%)
  AUC: 14600 ng·h/mL
Multiple ascending dose; human, in vivo, 200 mg, Cmax, MAD panel 10, 200 mg q.d. fasted, day 14, n = 6, geometric mean (geometric CV%)
  Cmax at 14 days: 1510 ng/mL
Multiple ascending dose; human, in vivo, 200 mg, MAD panel 10, 200 mg q.d. fasted, day 14, n = 6
  Tmax: 3.5 h
Multiple ascending dose; human, in vivo, 500 mg, AUC(0‐T), MAD panel 11, 500 mg q.d. fed, day 14, n = 6, geometric mean (geometric CV%)
  AUC: 142000 ng·h/mL
Multiple ascending dose; human, in vivo, 500 mg, AUC(TAU), MAD panel 11, 500 mg q.d. fed, day 14, n = 6, geometric mean (geometric CV%)
  AUC: 95100 ng·h/mL
Multiple ascending dose; human, in vivo, 500 mg, Cmax, MAD panel 11, 500 mg q.d. fed, day 14, n = 6, geometric mean (geometric CV%)
  Cmax: 7600 ng/mL
Multiple ascending dose; human, in vivo, 500 mg, MAD panel 11, 500 mg q.d. fed, day 14, n = 6
  Tmax: 4 h
Multiple ascending dose; human, in vivo, mean T1/2, range across MAD panels, MAD
  half-life: 11.4 to 18.1 h
